According to patent publication US6605145B1, “Alkylformamide surfactants” (Air Products and Chemicals, Inc., priority 1999, dated 2003):
One block for each compound: values may come before it.

Assays:
Format in all cases: physicochemical
[1] = Solubility limit in water from plot of ln(conc.) vs surface tension at 0.1 b/s
Description: A plot of In(conc.) vs surface tension observed at 0.1 b/s was used to determine that the solubility limit of this material is 0.1 wt %.

[2] = Dynamic surface tension of aqueous solutions, maximum bubble pressure method
Description: where R is a C5 to C11 alkyl group, provided that the organic compound is not an azole derivative fungicide. […] The maximum-bubble-pressure method of measuring surface tension is described in Langmuir 1986, 2, 428-432, which is incorporated by reference.
In the following Examples dynamic surface tension data were obtained for aqueous solutions of various compounds using the maximum bubble pressure method at bubble rates from 0.1 bubbles/second (b/s) to 20 b/s. […] In practical terms, high bubble rates correspond to high printing speeds in lithographic printing, high spray or roller velocities in coating applications, and rapid application rates for agricultural products.

[3] = Foam test based upon ASTM D 1173-53
Procedure: The foaming properties of 0.1 wt % solutions of the N-octylpyrrolidone and the alkylformamide surfactants of this invention were examined using a procedure based upon ASTM D 1173-53. In this test, a 0.1 wt % solution of the surfactant is added from an elevated foam pipette to a foam receiver containing the same solution. The foam height is measured at the completion of the addition (“Initial Foam Height”) and the time required for the foam to dissipate at the air-liquid interface (“Time to 0 Foam”) is recorded. This test provides a comparison between the foaming characteristics of various surfactant solutions. In general, in coatings, inks, and agricultural formulations, foam is undesirable because it complicates handling and can lead to coating and print defects, and to inefficient application of agricultural materials.

SMILES: CCCCCCCCN1CCCC1=O [N-n-Octylpyrrolidone, reference compound]
Dynamic Surface Tension ([2]; 0.003 wt % in water, 0.1 b/s): 65.1 dyne/cm
Dynamic Surface Tension ([2]; 0.003 wt % in water, 1 b/s): 68.6 dyne/cm
Dynamic Surface Tension ([2]; 0.003 wt % in water, 6 b/s): 70.8 dyne/cm
Dynamic Surface Tension ([2]; 0.003 wt % in water, 15 b/s): 71.4 dyne/cm
Dynamic Surface Tension ([2]; 0.003 wt % in water, 20 b/s): 71.1 dyne/cm
Dynamic Surface Tension ([2]; 0.03 wt % in water, 0.1 b/s): 46.5 dyne/cm
Dynamic Surface Tension ([2]; 0.03 wt % in water, 1 b/s): 49.3 dyne/cm
Dynamic Surface Tension ([2]; 0.03 wt % in water, 6 b/s): 54.4 dyne/cm
Dynamic Surface Tension ([2]; 0.03 wt % in water, 15 b/s): 58.7 dyne/cm
Dynamic Surface Tension ([2]; 0.03 wt % in water, 20 b/s): 59.6 dyne/cm
Dynamic Surface Tension ([2]; 0.07 wt % in water, 0.1 b/s): 35.2 dyne/cm
Dynamic Surface Tension ([2]; 0.07 wt % in water, 1 b/s): 36.6 dyne/cm
Dynamic Surface Tension ([2]; 0.07 wt % in water, 6 b/s): 39.6 dyne/cm
Dynamic Surface Tension ([2]; 0.07 wt % in water, 15 b/s): 43.0 dyne/cm
Dynamic Surface Tension ([2]; 0.07 wt % in water, 20 b/s): 43.9 dyne/cm
Dynamic Surface Tension ([2]; 0.1 wt % in water, 0.1 b/s): 29.9 dyne/cm
Dynamic Surface Tension ([2]; 0.1 wt % in water, 1 b/s): 31.0 dyne/cm
Dynamic Surface Tension ([2]; 0.1 wt % in water, 1 b/s, listed as n-octylpyrrolidone): below 30 dyne/cm
Dynamic Surface Tension ([2]; 0.1 wt % in water, 6 b/s): 33.4 dyne/cm
Dynamic Surface Tension ([2]; 0.1 wt % in water, 15 b/s): 36.5 dyne/cm
Dynamic Surface Tension ([2]; 0.1 wt % in water, 20 b/s): 37.2 dyne/cm
Dynamic Surface Tension ([2]; 0.1 wt % in water, 20 b/s, listed as n-octylpyrrolidone): below 40 dyne/cm
Dynamic Surface Tension ([2]; 0.21 wt % in water, 0.1 b/s): 27.6 dyne/cm
Dynamic Surface Tension ([2]; 0.21 wt % in water, 1 b/s): 27.8 dyne/cm
Dynamic Surface Tension ([2]; 0.21 wt % in water, 6 b/s): 28.4 dyne/cm
Dynamic Surface Tension ([2]; 0.21 wt % in water, 15 b/s): 30.0 dyne/cm
Dynamic Surface Tension ([2]; 0.21 wt % in water, 20 b/s): 30.6 dyne/cm
Initial Foam Height ([3]; 0.1 wt % solution): 4.0 cm
cm Foam after 5 min ([3]; 0.1 wt % solution): 1.0 cm
foaming of aqueous solutions (in words) [3]: quite foamy

SMILES: CCCCCCCCNC=O [drawing 13, n-octylformamide]
Initial Foam Height ([3]; 0.1 wt % solution): 0.9 cm
Time to 0 Foam ([3]; 0.1 wt % solution): 5 s

SMILES: CCCCC(CC)CNC=O (stereo not drawn) [drawing 14, 2-ethylhexylformamide]
Initial Foam Height ([3]; 0.1 wt % solution): 0.5 cm
Time to 0 Foam ([3]; 0.1 wt % solution): 4 s

SMILES: CCCCCCCCCCNC=O [drawing 16, n-decylformamide]
Initial Foam Height ([3]; 0.1 wt % solution): 2.4 cm
Time to 0 Foam ([3]; 0.1 wt % solution): 12 s

Further lines, results first:

solubility limit [1]: 0.2 wt %
Dynamic Surface Tension ([2]; 0.03 wt % in water, 0.1 b/s): 51.1 dyne/cm
Dynamic Surface Tension ([2]; 0.03 wt % in water, 1 b/s): 53.0 dyne/cm
Dynamic Surface Tension ([2]; 0.03 wt % in water, 6 b/s): 57.0 dyne/cm
Dynamic Surface Tension ([2]; 0.03 wt % in water, 15 b/s): 60.1 dyne/cm
Dynamic Surface Tension ([2]; 0.03 wt % in water, 20 b/s): 60.3 dyne/cm
Dynamic Surface Tension ([2]; 0.05 wt % in water, 0.1 b/s): 45.9 dyne/cm
Dynamic Surface Tension ([2]; 0.05 wt % in water, 1 b/s): 47.2 dyne/cm
Dynamic Surface Tension ([2]; 0.05 wt % in water, 6 b/s): 49.9 dyne/cm
Dynamic Surface Tension ([2]; 0.05 wt % in water, 15 b/s): 52.6 dyne/cm
Dynamic Surface Tension ([2]; 0.05 wt % in water, 20 b/s): 53.3 dyne/cm
Dynamic Surface Tension ([2]; 0.07 wt % in water, 0.1 b/s): 42.8 dyne/cm
Dynamic Surface Tension ([2]; 0.07 wt % in water, 1 b/s): 43.8 dyne/cm
Dynamic Surface Tension ([2]; 0.07 wt % in water, 6 b/s): 46.0 dyne/cm
Dynamic Surface Tension ([2]; 0.07 wt % in water, 15 b/s): 48.3 dyne/cm
Dynamic Surface Tension ([2]; 0.07 wt % in water, 20 b/s): 49.1 dyne/cm
Dynamic Surface Tension ([2]; 0.1 wt % in water, 0.1 b/s): 39.1 dyne/cm
Dynamic Surface Tension ([2]; 0.1 wt % in water, 1 b/s): 39.9 dyne/cm
Dynamic Surface Tension ([2]; 0.1 wt % in water, 6 b/s): 41.6 dyne/cm
Dynamic Surface Tension ([2]; 0.1 wt % in water, 15 b/s): 43.5 dyne/cm
Dynamic Surface Tension ([2]; 0.1 wt % in water, 20 b/s): 44.2 dyne/cm
Dynamic Surface Tension ([2]; 0.2 wt % in water, 0.1 b/s): 32.1 dyne/cm
Dynamic Surface Tension ([2]; 0.2 wt % in water, 1 b/s): 32.4 dyne/cm
Dynamic Surface Tension ([2]; 0.2 wt % in water, 6 b/s): 33.3 dyne/cm
Dynamic Surface Tension ([2]; 0.2 wt % in water, 15 b/s): 34.9 dyne/cm
Dynamic Surface Tension ([2]; 0.2 wt % in water, 20 b/s): 35.5 dyne/cm
SMILES: CCCCC(CC)CNC=O (stereo not drawn) [2-EHF, 2-ethylhexylformamide]

solubility limit [1]: 0.01 wt %
Dynamic Surface Tension ([2]; 0.005 wt % in water, 0.1 b/s): 53.4 dyne/cm
Dynamic Surface Tension ([2]; 0.005 wt % in water, 1 b/s): 67.1 dyne/cm
Dynamic Surface Tension ([2]; 0.005 wt % in water, 6 b/s): 70.6 dyne/cm
Dynamic Surface Tension ([2]; 0.005 wt % in water, 15 b/s): 72.5 dyne/cm
Dynamic Surface Tension ([2]; 0.005 wt % in water, 20 b/s): 73.1 dyne/cm
Dynamic Surface Tension ([2]; 0.007 wt % in water, 0.1 b/s): 36.3 dyne/cm
Dynamic Surface Tension ([2]; 0.007 wt % in water, 1 b/s): 59.2 dyne/cm
Dynamic Surface Tension ([2]; 0.007 wt % in water, 6 b/s): 70.3 dyne/cm
Dynamic Surface Tension ([2]; 0.007 wt % in water, 15 b/s): 72.3 dyne/cm
Dynamic Surface Tension ([2]; 0.007 wt % in water, 20 b/s): 72.9 dyne/cm
Dynamic Surface Tension ([2]; 0.01 wt % in water, 0.1 b/s): 32.4 dyne/cm
Dynamic Surface Tension ([2]; 0.01 wt % in water, 1 b/s): 55.4 dyne/cm
Dynamic Surface Tension ([2]; 0.01 wt % in water, 6 b/s): 69.1 dyne/cm
Dynamic Surface Tension ([2]; 0.01 wt % in water, 15 b/s): 72.5 dyne/cm
Dynamic Surface Tension ([2]; 0.01 wt % in water, 20 b/s): 72.8 dyne/cm
SMILES: CCCCCCCCCCNC=O [n-DF, n-decylformamide]

solubility limit [1]: 1.1 wt %
Dynamic Surface Tension ([2]; 0.1 wt % in water, 0.1 b/s (Table 4)): 56.0 dynes/cm
Dynamic Surface Tension ([2]; 0.1 wt % in water, 1 b/s (Table 4)): 57.6 dynes/cm
Dynamic Surface Tension ([2]; 0.1 wt % in water, 6 b/s (Table 4)): 58.8 dynes/cm
Dynamic Surface Tension ([2]; 0.1 wt % in water, 15 b/s (Table 4)): 60.3 dynes/cm
Dynamic Surface Tension ([2]; 0.1 wt % in water, 20 b/s (Table 4)): 60.6 dynes/cm
Dynamic Surface Tension ([2]; 0.5 wt % in water, 0.1 b/s): 37.2 dynes/cm
Dynamic Surface Tension ([2]; 0.5 wt % in water, 1 b/s): 38.0 dynes/cm
Dynamic Surface Tension ([2]; 0.5 wt % in water, 6 b/s): 38.8 dynes/cm
Dynamic Surface Tension ([2]; 0.5 wt % in water, 15 b/s): 40.1 dynes/cm
Dynamic Surface Tension ([2]; 0.5 wt % in water, 20 b/s): 40.3 dynes/cm
Dynamic Surface Tension ([2]; 1.0 wt % in water, 0.1 b/s): 28.4 dynes/cm
Dynamic Surface Tension ([2]; 1.0 wt % in water, 1 b/s): 29.0 dynes/cm
Dynamic Surface Tension ([2]; 1.0 wt % in water, 6 b/s): 29.6 dynes/cm
Dynamic Surface Tension ([2]; 1.0 wt % in water, 15 b/s): 30.1 dynes/cm
Dynamic Surface Tension ([2]; 1.0 wt % in water, 20 b/s): 31.1 dynes/cm
surface tension ([2]; 1.0 wt % solution, 20 b/s): 31.1 dyne/cm
Dynamic Surface Tension ([2]; 2.0 wt % in water, 0.1 b/s): 27.4 dynes/cm
Dynamic Surface Tension ([2]; 2.0 wt % in water, 1 b/s): 28.4 dynes/cm
Dynamic Surface Tension ([2]; 2.0 wt % in water, 6 b/s): 29.3 dynes/cm
Dynamic Surface Tension ([2]; 2.0 wt % in water, 15 b/s): 30.7 dynes/cm
Dynamic Surface Tension ([2]; 2.0 wt % in water, 20 b/s): 30.3 dynes/cm
foaming of aqueous solutions (in words) [3]: almost no foam
SMILES: CCCCCCNC=O [n-HF, n-hexylformamide]

solubility limit [1]: 0.1 wt %
Dynamic Surface Tension ([2]; 0.03 wt % in water, 0.1 b/s): 42.8 dyne/cm
Dynamic Surface Tension ([2]; 0.03 wt % in water, 1 b/s): 46.1 dyne/cm
Dynamic Surface Tension ([2]; 0.03 wt % in water, 6 b/s): 52.2 dyne/cm
Dynamic Surface Tension ([2]; 0.03 wt % in water, 15 b/s): 58.5 dyne/cm
Dynamic Surface Tension ([2]; 0.03 wt % in water, 20 b/s): 60.4 dyne/cm
Dynamic Surface Tension ([2]; 0.05 wt % in water, 0.1 b/s): 35.6 dyne/cm
Dynamic Surface Tension ([2]; 0.05 wt % in water, 1 b/s): 37.7 dyne/cm
Dynamic Surface Tension ([2]; 0.05 wt % in water, 6 b/s): 42.5 dyne/cm
Dynamic Surface Tension ([2]; 0.05 wt % in water, 15 b/s): 48.6 dyne/cm
Dynamic Surface Tension ([2]; 0.05 wt % in water, 20 b/s): 50.5 dyne/cm
Dynamic Surface Tension ([2]; 0.07 wt % in water, 0.1 b/s): 30.9 dyne/cm
Dynamic Surface Tension ([2]; 0.07 wt % in water, 1 b/s): 32.5 dyne/cm
Dynamic Surface Tension ([2]; 0.07 wt % in water, 6 b/s): 36.3 dyne/cm
Dynamic Surface Tension ([2]; 0.07 wt % in water, 15 b/s): 41.5 dyne/cm
Dynamic Surface Tension ([2]; 0.07 wt % in water, 20 b/s): 43.7 dyne/cm
Dynamic Surface Tension ([2]; 0.1 wt % in water, 1 b/s): 26.6 dyne/cm
Dynamic Surface Tension ([2]; 0.1 wt % in water, 6 b/s): 28.7 dyne/cm
Dynamic Surface Tension ([2]; 0.1 wt % in water, 15 b/s): 34.4 dyne/cm
SMILES: CCCCCCCCNC=O [n-OF, n-octylformamide]
